Reference: patent US20070219767A1, “ATOMIC COORDINATES OF ALBUMIN DRUG COMPLEXES AND METHOD OF USE OF PHARMACEUTICAL DEVELOPMENT” (priority 2003, published 2007)
“Also recorded” adds a separate entry of the source. Read-outs that look alike come from different tables or passages of the source.

Legend:
human serum albumin [1] = target: T1, human serum albumin (Homo sapiens, UniProt P02768); assay: X-ray crystallography of human serum albumin/drug complexes: binding location; set-up: Domain I (1 through 192); Domain II (193 through 395);Domain III (396 THROUGH 585); conditions: for Albumin Binding Location: Table I, Phase I, subdomain of HSA where the drug is found in the crystal complex
T1 sequence (P02768 25-609): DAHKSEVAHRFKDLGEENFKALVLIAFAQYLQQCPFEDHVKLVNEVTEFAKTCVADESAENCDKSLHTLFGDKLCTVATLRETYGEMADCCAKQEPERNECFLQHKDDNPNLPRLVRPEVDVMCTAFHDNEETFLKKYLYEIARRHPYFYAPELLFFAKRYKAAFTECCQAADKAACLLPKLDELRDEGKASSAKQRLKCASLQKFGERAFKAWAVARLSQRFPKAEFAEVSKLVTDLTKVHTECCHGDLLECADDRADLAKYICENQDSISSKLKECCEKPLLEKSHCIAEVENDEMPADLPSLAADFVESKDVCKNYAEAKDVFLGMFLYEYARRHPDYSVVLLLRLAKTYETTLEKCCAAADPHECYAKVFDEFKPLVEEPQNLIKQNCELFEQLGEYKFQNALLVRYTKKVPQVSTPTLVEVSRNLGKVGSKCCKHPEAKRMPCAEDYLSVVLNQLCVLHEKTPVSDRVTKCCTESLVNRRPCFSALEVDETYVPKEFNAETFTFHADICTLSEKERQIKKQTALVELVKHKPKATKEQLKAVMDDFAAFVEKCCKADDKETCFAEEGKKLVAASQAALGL
From the text: This information was derived from crystallization of the protein/ligand to create a protein/ligand complex and determining the atomic structure of the resulting complex by x-ray diffraction. The ligand may be any ligand capable of binding to the human serum albumin protein, and is preferably a ligand that binds to one of the binding sites described herein.
One method of obtaining information regarding the structural; characteristics of the albumin binding regions is through protein crystallization processes.
By applying standard crystallization protocols to the above described crystallizable compositions, crystals of the human serum albumin complex may be obtained. This, an even further aspect of this invention relates to a method of preparing human serum albumin complex-containing crystals. The method comprises the steps of • (a) obtaining a crystallizable composition comprising a human serum albumin protein, divalent cations, and a ligand capable of binding to the protein, and • (b) subjecting the composition of step (a) to conditions which promote crystallization.
The “active site binding pockets” or “active site” of human serum albumin refers to one of several areas determined experimentally on the human serum albumin protein surface where substrates bind.

human serum albumin [2] = target: T1, human serum albumin; conditions: prior knowledge on non-drugs such as gases; cited from earlier work
[3] = Table II, Phase II, refined coordinates, listed residues within 5 Å of bound ligand

## COc1ccc2cc(CC(=O)O)ccc2c1 [6-MNA]
Human serum albumin [1]; [3]
  Binding site of the Drug-Albumin Complex (site heading the list of contacting residues): Site IB, R114, L115, R117, M123, L135, Y138, L139, I142, H146,; also recorded: Site IIA-IIBR209, A210, A213, W214, D324, L327, G328, L331,; also recorded: Site IIIA, L387, I388, N391, C392, F403, L407, R410, Y411, K414,

## CC[C@@]1(O)C(=O)OCc2c1cc1n(c2=O)Cc2cc3c([N+](=O)[O-])cccc3nc2-1 [9 Nitro-Camptothecin]
Human serum albumin [1]; [3]
  Binding site of the Drug-Albumin Complex (site heading the list of contacting residues): Site IB, L115, V116, R117, Y138, I142, H146, F149, L154, F157,

## CC(=O)Oc1ccccc1C(=O)O [Aspirin]
Human serum albumin [1]; [3]
  Binding site of the Drug-Albumin Complex (site heading the list of contacting residues): Site IIIB, F509, I513, R521, K524, K525, A528, M548, F551, A552,

## O=C(O)CCNC(=O)c1ccc(/N=N/c2ccc(O)c(C(=O)O)c2)cc1 [Balsalazide]
Human serum albumin [1]; [3]
  Binding site of the Drug-Albumin Complex (site heading the list of contacting residues): Site IIA-IIIB, S401, K402, N405, A406, L407, V409, R410, K413,

## CC(NC(C)(C)C)C(=O)c1cccc(Cl)c1 (stereo not shown) [Bupropion]
Human serum albumin [1]
  Albumin Binding Location: IIA, IIIA

## CC[C@@]1(O)C(=O)OCc2c1cc1n(c2=O)Cc2cc3ccccc3nc2-1 [Camptothecin]
Human serum albumin [1]; [3]
  Binding site of the Drug-Albumin Complex (site heading the list of contacting residues): Site IB, L115, V116, R117, M123, Y138, I142, H146, F149, L154,

## CCOc1nc2cccc(C(=O)OC(C)OC(=O)OC3CCCCC3)c2n1Cc1ccc(-c2ccccc2-c2nn[nH]n2)cc1 (stereo not shown) [Candesartan Cilexitil]
Human serum albumin [1]; [3]
  Binding site of the Drug-Albumin Complex (site heading the list of contacting residues): Site II-III, K195, L198, K199, S202, L203, F206, G207, A210, F211,; also recorded: Site IIIA, P384, L387, I388, N391, C392, F395, F403, L407, Y411,; also recorded: Site IIIA-IIIB, L398, Y401, K402, N405, A406, V409, R410, L529,

## COc1ccccc1OCCNCC(O)COc1cccc2[nH]c3ccccc3c12 (stereo not shown) [Carvedilol]
Human serum albumin [1]; [3]
  Binding site of the Drug-Albumin Complex (site heading the list of contacting residues): Site IIIA, P384, L387, I388, N391, F403, L407, R410, Y411, K414,

## CCCNC(=O)NS(=O)(=O)c1ccc(Cl)cc1 [Chlorpropamide]
Human serum albumin [1]
  Albumin Binding Location: IIA, IIIA

## CCCCC(=O)O[C@H]1CC[C@H]2[C@@H]3CCc4cc(O)ccc4[C@H]3CC[C@]12C [Estradiol Valerate]
Human serum albumin [1]
  Albumin Binding Location: IIA

## CCc1cccc2c3c([nH]c12)C(CC)(CC(=O)O)OCC3 (stereo not shown) [Etodolac]
Human serum albumin [1]; [3]
  Binding site of the Drug-Albumin Complex (site heading the list of contacting residues): Site IB, L115, Y138, E141, I142, R145, H146, Y161, L182, L185,; also recorded: Site IIIA, P384, L387, I388, N391, F403, L407, R410, Y411, K414,

## CC(C(=O)O)c1ccc(-c2ccccc2)c(F)c1 (stereo not shown) [Flurbiprofen]
Human serum albumin [1]; [3]
  Binding site of the Drug-Albumin Complex (site heading the list of contacting residues): Site IIIA, L387, I388, N391, C392, F395, F403, L407, R410, Y411,

## Cc1ccc(C)c(OCCCC(C)(C)C(=O)O)c1 [Gemfrirozil]
Human serum albumin [1]; [3]
  Binding site of the Drug-Albumin Complex (site heading the list of contacting residues): Site IB, L115, V116, R117, F134, L135, Y138, L139, I142, R145,; also recorded: Site IIIA, L387, R410, Y411, K414, V415, V418, L423, V426, S427,

## COc1ccc(Cl)cc1C(=O)NCCc1ccc(S(=O)(=O)NC(=O)NC2CCCCC2)cc1 [Glyburide]
Human serum albumin [1]; [3]
  Binding site of the Drug-Albumin Complex (site heading the list of contacting residues): Site IB, L115, V116, R117, P118, M123, A126, F134, K137, Y138,

## CC(=O)[C@]1(O)Cc2c(O)c3c(c(O)c2[C@@H](O[C@H]2C[C@H](N)[C@H](O)[C@H](C)O2)C1)C(=O)c1ccccc1C3=O [Idarubicin]
Human serum albumin [1]; [3]
  Binding site of the Drug-Albumin Complex (site heading the list of contacting residues): Site IB, F036, F037, L115, V116, R117, P118, V122, M123, A126,

## O=C(c1ccccc1)c1ccc2n1CCC2C(=O)O (stereo not shown) [Ketorolac]
Human serum albumin [1]; [3]
  Binding site of the Drug-Albumin Complex (site heading the list of contacting residues): Site IB, L115, R117, Y138, I142, H146, F157, Y161, L182, D183,; also recorded: Site IIIA, L387, I388, N391, C392, F403, L407, R410, Y411, K414,

## CC[C@H](C)C(=O)O[C@H]1C[C@@H](C)C=C2C=C[C@H](C)[C@H](CC[C@@H]3C[C@@H](O)CC(=O)O3)[C@H]21 [Lovastatin]
Human serum albumin [1]
  Albumin Binding Location: IIA

## Cc1ccc(Cl)c(Nc2ccccc2C(=O)O)c1Cl [Meclofenamic Acid]
Human serum albumin [1]; [3]
  Binding site of the Drug-Albumin Complex (site heading the list of contacting residues): Site IIIA, P384, L387, I388, N391, C392, F403, L407, R410, Y411,

## Cc1cccc(Nc2ccccc2C(=O)O)c1C [Mefenamic Acid]
Human serum albumin [1]; [3]
  Binding site of the Drug-Albumin Complex (site heading the list of contacting residues): Site IIIA, E383, P384, L387, N391, C392, F403, L407, R410, Y411,

## CN1C(CCl)Nc2cc(Cl)c(S(N)(=O)=O)cc2S1(=O)=O (stereo not shown) [Methayclothiazide]
Human serum albumin [1]
  Albumin Binding Location: IIA-IIB

## CCc1nn(CCCN2CCN(c3cccc(Cl)c3)CC2)c(=O)n1CCOc1ccccc1 [Nefazodone]
Human serum albumin [1]
  Albumin Binding Location: IIIA

## O=C(O)CCc1nc(-c2ccccc2)c(-c2ccccc2)o1 [Oxaprozin]
Human serum albumin [1]; [3]
  Binding site of the Drug-Albumin Complex (site heading the list of contacting residues): Site IIIA, P384, L387, I388, N391, C392, F403, L407, R410, Y411,

## CC1(C)S[C@@H]2[C@H](NC(=O)Cc3ccccc3)C(=O)N2[C@H]1C(=O)O [Penecillin G]
Human serum albumin [1]; [3]
  Binding site of the Drug-Albumin Complex (site heading the list of contacting residues): Site IIA, Y150, K195, K199, F211, W214, A215, R218, L219, R222,

## CC1(C)S[C@@H]2[C@H](NC(=O)COc3ccccc3)C(=O)N2[C@H]1C(=O)O [Penicillin V]
Human serum albumin [1]
  Albumin Binding Location: IIA

## O=C1NC(=O)C(c2ccccc2)(c2ccccc2)N1 [Phenytoin]
Human serum albumin [1]
  Albumin Binding Location: IIA

## CN1C(C(=O)Nc2ccccn2)=C(O)c2ccccc2S1(=O)=O [Piroxicam]
Human serum albumin [1]; [3]
  Binding site of the Drug-Albumin Complex (site heading the list of contacting residues): Site IIA, K195, Q196, L198, K199, F211, W214, A215, R218, L219,

## C[C@]12C=CC(=O)C=C1CC[C@@H]1[C@@H]2C(=O)C[C@@]2(C)[C@H]1CC[C@]2(O)C(=O)CO [Prednisone]
Human serum albumin [1]
  Albumin Binding Location: IIA

## CC(CN1c2ccccc2Sc2ccccc21)N(C)C (stereo not shown) [Promethazine]
Human serum albumin [1]; [3]
  Binding site of the Drug-Albumin Complex (site heading the list of contacting residues): Site IIB, D308, F309, N318, E321, A322, V325, F326, N329

## CCC(=O)O[C@](Cc1ccccc1)(c1ccccc1)[C@H](C)CN(C)C [Propoxyphene]
Human serum albumin [1]; [3]
  Binding site of the Drug-Albumin Complex (site heading the list of contacting residues): Site IIIB, F502, F507, F509, A528, E531, L532, H535, V547, D550,

## O=C(c1ccccc1)c1ccc2n1CC[C@H]2C(=O)O [R-Ketorolac]
Human serum albumin [1]; [3]
  Binding site of the Drug-Albumin Complex (site heading the list of contacting residues): Site IB, R117, Y138, I142, H146, F149, L154, F157, Y161, L182,

## Cc1nc2n(c(=O)c1CCN1CCC(c3noc4cc(F)ccc34)CC1)CCCC2 [Risperidone]
Human serum albumin [1]; [3]
  Binding site of the Drug-Albumin Complex (site heading the list of contacting residues): Site IIIA, L387, I388, N391, C392, F403, L407, R410, Y411, K414,

## CCc1cccc2c3c([nH]c12)[C@](CC)(CC(=O)O)OCC3 [S-Etodolac]
Human serum albumin [1]; [3]
  Binding site of the Drug-Albumin Complex (site heading the list of contacting residues): Site IIIA, P384, L387, I388, N391, F403, L407, R410, Y411, K414,

## O=C(c1ccccc1)c1ccc2n1CC[C@@H]2C(=O)O [S-Ketorolac]
Human serum albumin [1]; [3]
  Binding site of the Drug-Albumin Complex (site heading the list of contacting residues): Site IIIB, F507, F509, I513, L516, R521, K524, K525, A528, L532,

## O=C(Oc1ccccc1C(=O)O)c1ccccc1O [Salsalate]
Human serum albumin [1]; [3]
  Binding site of the Drug-Albumin Complex (site heading the list of contacting residues): Site IIIB, F509, I513, R521, K524, K525, A528, M548, F551, A552,

## CC1(C)S[C@@H]2[C@H](NC(=O)C(c3ccccc3)S(=O)(=O)O)C(=O)N2[C@H]1C(=O)O (stereo partly shown) [Sulbenicillin]
Human serum albumin [1]; [3]
  Binding site of the Drug-Albumin Complex (site heading the list of contacting residues): Site IIA, Y150, K195, K199, W214, R218, L219, R222, L238, H242,

## Cc1noc(NS(=O)(=O)c2ccc(N)cc2)c1C [Sulfisoxazole]
Human serum albumin [1]
  Binding site of the Drug-Albumin Complex (site heading the list of contacting residues): Site IB, L115, V116, R117, P118, M123, Y138, I142, Y161, L182,

## CCCc1nc2c(C)cc(-c3nc4ccccc4n3C)cc2n1Cc1ccc(-c2ccccc2C(=O)O)cc1 [Telmisartan]
Human serum albumin [1]; [3]
  Binding site of the Drug-Albumin Complex (site heading the list of contacting residues): Site IB, L115, V116, R117, P118, M123, F134, K137, Y138, E141,

## COc1cc([C@@H]2c3cc4c(cc3[C@@H](O[C@@H]3O[C@@H]5CO[C@@H](c6cccs6)O[C@H]5[C@H](O)[C@H]3O)[C@H]3COC(=O)[C@H]23)OCO4)cc(OC)c1O [Teniposide]
Human serum albumin [1]; [3]
  Binding site of the Drug-Albumin Complex (site heading the list of contacting residues): Site IB, L115, V116, R117, P118, A126, F134, K137, Y138, E141,

## CN(C/C=C/C#CC(C)(C)C)Cc1cccc2ccccc12 [Terbinafine]
Human serum albumin [1]
  Albumin Binding Location: IIIA

## CC1=C(/C=C/C(C)=C/C=C/C(C)=C/C(=O)O)C(C)(C)CCC1 [Tertinoin]
Human serum albumin [1]
  Albumin Binding Location: IIIA

## COc1cc(C(=O)NS(=O)(=O)c2ccccc2C)ccc1Cc1cn(C)c2ccc(NC(=O)OC3CCCC3)cc12 [Zafirlukast]
Human serum albumin [1]; [3]
  Binding site of the Drug-Albumin Complex (site heading the list of contacting residues): Site IIA, Y150, E153, K195, L198, K199, S202, F211, W214, A215,

## FC(F)(F)C(Cl)Br (stereo not shown) [halothane]
Human serum albumin [2]
  HSA site with binding affinity, previously known: IIA-IIB

## Hemin
Human serum albumin [1]; [3]
  Binding site of the Drug-Albumin Complex (site heading the list of contacting residues): Site IB, R114, L115, V116, R117, P118, M123, F134, L135, Y138,
